Measured values published in paper PMC11401910, “Dual client binding sites in the ATP-independent chaperone SurA” (Nature Communications, 2024).
Entries after “also recorded” stand apart in the source; their conditions may differ. Where two headings read alike, the source gives them in different places.

Assays:
SurA-WT [1] = molecular target: T1, SurA-WT (Escherichia coli, UniProt P0ABZ6); format: binding; parameters: made in house; host or cells: E. coli BL21(DE3)
Experimental: All NMR experiments were performed on a 950-MHz Bruker Ascend Avance III HD NMR spectrometer equipped with either a Bruker 3 mm TCI or 5 mm TXO triple-resonance cryogenically cooled probe. Peptide binding experiments were performed in 5 mM EDTA, 20 mM Tris-HCl, pH 8.0 with 5 % (v/v) D2O at 25 °C. Binding experiments using full-length OMP sequences also contained 0.8 M urea. Data was acquired for ~16 h with the exception of OMP-containing experiments which were acquired for ~5 h. […] (2D ^1H-^13C SOFAST-HMQC)[70]. […] Errors in the intensity ratios for each peak between two spectra were obtained by propagating the errors according to:1 δR=R*δX/X+δY/Y where δR is the error in the intensity ratio, |R| is the value of the intensity ratio, X and Y are the intensity values for the peak in the first and second spectrum, respectively, and δX and δY are the noise floor values for the first and second spectrum, respectively.
Z-scores for intensity ratio and CSP data were calculated using:3 Zi=xi−μ/σ where xi is the value for a particular peak, and µ and σ are the mean and standard deviation for all peaks, respectively.
For assignment of SurA-WT Ile and Met residues (43 in total) each residue was individually mutated (Supplementary Table 3), and the effect of the mutation assessed by methyl-TROSY NMR. Samples contained 5–70 µM SurA variant. Assignment experiments (2D ^1H-^13C SOFAST-HMQCs) for Ile or Met variants were performed in 20 mM sodium phosphate, 50 mM NaCl, pH 7.5 (at 35 °C), or 20 mM Tris-HCl, pH 8 (at 25 °C), respectively. […] The ^1H chemical shift assignments were referenced using 2,2-dimethyl-2-silapentane-5-sulphonic acid (DSS) at 25 °C as a standard. The ^13C chemical shifts were referenced indirectly to DSS. NMR assignments have been deposited in the Biological Magnetic Resonance Bank (BMRB) with Entry ID 52180.

SurA = conditions: read-out: Kd, binding of peptide to SurA; cited from earlier work
Source text: (where Ar is an aromatic residue and X is any amino acid), or aromatic-enriched sequences containing an Ar-X-Ar-X-Pro motif. […] Both of these types of peak changes (shifts and/or broadening), can report on binding or conformational changes caused by binding at the location of the corresponding ^13CH3 probe[73],[74].

SurA-WT [2] = molecular target: T1, SurA-WT; conditions: pH 8
Source text: (1 picture or pasted object on this page, not shown here)
Source data are provided as a Source Data file.

[3] = 5 µM SurA-WT, 200 µM peptide (SVD and WEYIPNV 50 µM), 5 mM EDTA, 20 mM Tris-HCl pH 8, 25 °C

T1 sequence (P0ABZ6 other isoform, or with tags, fused parts or gaps): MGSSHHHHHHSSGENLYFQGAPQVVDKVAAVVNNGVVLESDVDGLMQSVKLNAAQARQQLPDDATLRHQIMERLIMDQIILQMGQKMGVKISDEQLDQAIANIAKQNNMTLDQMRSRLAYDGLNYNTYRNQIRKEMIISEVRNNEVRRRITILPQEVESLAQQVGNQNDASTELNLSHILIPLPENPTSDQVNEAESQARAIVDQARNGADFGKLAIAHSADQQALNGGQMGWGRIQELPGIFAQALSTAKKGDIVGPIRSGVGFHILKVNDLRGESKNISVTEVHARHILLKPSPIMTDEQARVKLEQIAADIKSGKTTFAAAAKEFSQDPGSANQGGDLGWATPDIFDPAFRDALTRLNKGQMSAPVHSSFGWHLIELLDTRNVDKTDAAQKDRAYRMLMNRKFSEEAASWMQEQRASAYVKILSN

Row | Molecule | Interaction of peptide with SurA-WT binding sites (core, P1) by methyl-TROSY NMR, in words (SurA-WT [1]; [3]) | Interaction of peptide with SurA-WT binding sites (core, P1) by methyl-TROSY NMR, in words (SurA-WT [1]; pH 8) | Kd (SurA) | Affinity of peptide for SurA-WT by ITC (in words) (SurA-WT [2])
1 | CSCC[C@H](NC(=O)[C@H](CCCCN)NC(=O)[C@H](CC(N)=O)NC(=O)[C@H](CCSC)NC(=O)[C@H](CCC(N)=O)NC(C)=O)C(=O)NCC(=O)NCC(=O)N[C@@H](Cc1ccccc1)C(=O)N[C@@H](CC(N)=O)C(=O)N[C@@H](CC(C)C)C(=O)N[C@@H](CCCCN)C(=O)N[C@@H](Cc1ccc(O)cc1)C(=O)N[C@@H](CCCNC(=N)N)C(=O)N[C@@H](Cc1ccc(O)cc1)C(=O)N[C@@H](CCC(=O)O)C(N)=O [QMN] | also affect the peak for M231 in the P1 domain; also recorded: binding results in conformational changes associated with core-P1 opening | – | – | –
2 | Ac-KHDTSDYGFSYGAGL-NH2 [KHD] | also affect the peak for M231 in the P1 domain | – | – | –
3 | NLKYRYE [QMN^C-term, C-terminal seven residues of QMN] | – | demonstrated binding at the core site, but with binding largely abolished at the P1 site | – | –
4 | WEYIPNV [reference compound] | – | severe broadening of the resonance for M231; also recorded: substantial CSPs in the P1 domain | 1 to 14 µM | consistent with literature values
